The structures appear in SMILES notation.

Data set [1] concerns intraocular pressure of guinea pigs. As to the kind of experiment: Adverse reactions of continuous ocular administration: intraocular pressure. It is filed as in vivo. The procedure:
Pharmacological Example 9: Experiment on Adverse Reactions of Continuous Ocular Administration in Guinea Pigs
Test samples: Compounds 17 and 23 were prepared as 5 mg/5 mL ophthalmic suspensions with reference to the formulation of Fluorometholone Eye Drops, and stored at room temperature protected from light until use.
Positive control drug: Fluorometholone Eye Drops (specification: 5 mL/5 mg; Santen Pharmaceutical (CHINA) Co., Ltd.; Lot No.: 1FM6545), Loteprednol Etabonate Eye Drops (specification 0.5% (5 mg/mL); Shandong Bausch & Lomb Freda Pharmaceutical Co., Ltd; Lot No. 386521), stored at room temperature protected from light until use.
Animals: 50 guinea pigs, conventional grade, with an equal number of males and females, weighing 300-350 g..
Animal grouping: After 5 days of adaptive feeding, the guinea pigs were randomly divided into 5 groups based on body weight. Group 1 was the blank control group, and 50 µL of normal saline was dropped into the eyes (bilateral) of the guinea pigs. Groups 2 to 5 were the fluorometholone group, loteprednol group, compound 17 group, and compound 23 group, respectively, and the corresponding drugs were dropped into the eyes (bilateral) of the guinea pigs. Table 19. Animal grouping and drug administration dosages for the experiment on adverse reactions of continuous ocular administration in guinea pigs
Intraocular pressure measurement time: The intraocular pressure of animals in each group was measured before administration and on days 7, 14, 21, and 28 post-administration.

For data set [2], the system named is inflammatory bowel disease model rats. Briefly: Inflammatory bowel disease experiment (TNBS model): macroscopic injury score of the colon. The data set is classed as in vivo. The conditions noted are these: compared with the model group. As to the method: Pharmacological Example 7: Pharmacodynamic Experiment on Inflammatory Bowel Disease in Rats
Test samples: The jet-milled compounds 23 and 34 were accurately weighed and prepared as 2 mg/mL clear solutions using anhydrous ethanol, respectively. The solutions were then diluted to 0.2 mg/mL with double-distilled water as the test samples, and stored at room temperature protected from light until use.
Animals in Groups 2 to 5 were subjected to trinitrobenzene sulfonic acid (TNBS) modeling as follows: A 5% TNBS aqueous solution was adjusted to 20 mg/mL TNBS (50% ethanol solution) with alcohol and water. After fasting for 24 h, the rats were anesthetized using an inhalation anesthesia machine. A silicone hose was inserted approximately 8 cm into the anus, and then TNBS was injected at a dose of 50 mg/kg. After injection, the rats were placed vertically for 1 min to prevent the backflow of TNBS solution. Then, the rats were placed into their cages for observation until the animals recovered.
Drug administration started one day before modeling, with one dose administered 1 hour before modeling and then once a day for 5 consecutive days. […] Table 14. Animal grouping and drug administration dosages
The experiment ended on day 5 after TNBS modeling. After isoflurane anesthesia, blood was collected from the hearts, and the rats were euthanized. The abdominal cavity was rapidly opened, and the macroscopic injury scoring of the colon in rats was performed based on the adhesion, obstruction, thickening of the colonic wall, colonic congestion, and necrosis in the colon area. After clearing the colonic contents, the colonic samples were longitudinally incised. The proximal 2/3 of the colon was excised, prepared into Swiss rolls, and stored in 4% neutral buffered formalin for histopathological analysis. Tissues were trimmed, dehydrated, paraffin-embedded, and sectioned (approximately 5 µm thickness), stained with hematoxylin-eosin (HE), and observed for pathological changes. Pathologists performed blind scoring of colonic lesions.
Quantitative indices were first subjected to Bartlett's test for homogeneity of variance. When the variance was homogeneous (P > 0.05), one-way analysis of variance (ANOVA) was used for a statistical test; if there was statistical significance (P ≤ 0.05), Dunnett's t-test (Dunnett method) was used to compare intergroup differences; if there was no statistical significance (P > 0.05), the statistical analysis was concluded. When the variance was heterogeneous (P ≤ 0.05), Kruskal-Wallis H rank-sum test (K-W method) was used for statistical analysis: if there was statistical significance (P ≤ 0.05), Mann-Whitney U test (M-W method) was further performed to compare intergroup differences; if there was no statistical significance (P > 0.05), the statistical analysis was concluded.

For data set [3], the system named is dry eye syndrome model New Zealand rabbits. Briefly: Dry eye syndrome experiment (benzalkonium chloride model): corneal fluorescein sodium staining. The following applies: for inflammatory response on the ocular surface / ocular symptoms: compared with the model group. It is filed as in vivo, male New Zealand White rabbits.
Protocol: Pharmacological Example 6: Therapeutic Pharmacodynamic Experiment on Dry Eye Syndrome in New Zealand Rabbits
(§1) Positive control drug: Fluorometholone Eye Drops (specification: 5 mL/5 mg; Santen Pharmaceutical (CHINA) Co., Ltd.; Lot No.: 1FM6625) was used as the positive control drug and stored at room temperature protected from light until use.
Thirty male New Zealand White rabbits (conventional grade) were prepared. Six rabbits were randomly selected as the blank control group, and the remaining animals were administered 0.1% benzalkonium chloride to the left eye twice daily (morning and evening) , 10 µL/animal each time. […] During the administration, all animals except the blank control group were administered 10 µL of 0.1% benzalkonium chloride to the left eye once daily to maintain dry eye symptoms..
• Test time: D3, D7, D15; • Test animals: All animals were tested before grouping; all enrolled surviving animals were tested after administration; • Test method: 2 µL of 1% Fluorescein sodium was dropped into the conjunctival sac. After 5 s, the excess fluorescein was rinsed with 0.9% normal saline. The conjunctival staining was observed under a slit lamp with cobalt blue diffused light.
(§2) The normality and homogeneity of variance were tested by Levene's test. If there was no statistical significance (P > 0.05), one-way analysis of variance (ANOVA) was used for statistical analysis. If ANOVA was statistically significant (P ≤ 0.05), LSD test (parametric method) was used for comparative analysis. If the variance was heterogeneous (P ≤ 0.05), Kruskal-Wallis test was used. If the Kruskal-Wallis test was statistically significant (P ≤ 0.05), Dunnett's test (nonparametric method) was used for comparative analysis.
For data set [4] the test system is unchanged. As to the kind of experiment: Dry eye syndrome experiment (benzalkonium chloride model): tear film break-up time. It is filed as in vivo, male New Zealand White rabbits. The following applies: for tear film break-up time: compared with the model group.
Protocol: as §1
Thirty male New Zealand White rabbits (conventional grade) were prepared. Six rabbits were randomly selected as the blank control group, and the remaining animals were administered 0.1% benzalkonium chloride to the left eye twice daily (morning and evening) , 10 µL/animal each time. On day 6 of modeling, tear secretion was measured using phenol red cotton threads to determine whether the model was successfully established. […] During the administration, all animals except the blank control group were administered 10 µL of 0.1% benzalkonium chloride to the left eye once daily to maintain dry eye symptoms..
• Test time: D3, D7, D15; • Test animals: All animals were tested before grouping; all enrolled surviving animals were tested after administration; • Test method: 1% Fluorescein sodium was dropped onto the inner side of the rabbit's lower eyelid, 10 µL/animal. The rabbit's eyes were closed and gently massaged to evenly distribute the fluorescein sodium on the eye surface. The rabbit's eyes were then sequentially placed under a slit lamp. The tear film break-up time was observed and recorded as the time from eye opening to the appearance of the first dark spot. If no dark spot appeared, the time was calculated as 60 seconds.
as §2
The mark [5] stands for this setting: D3, 1 mg/mL, 50 µL/eye, 3 times a day for 14 days.
The mark [6] stands for this setting: D7, 1 mg/mL, 50 µL/eye, 3 times a day for 14 days.
[7] abbreviates: D15, 1 mg/mL, 50 µL/eye, 3 times a day for 14 days.

Regarding `C[C@]12C=CC(=O)C=C1CC[C@H]1[C@@H]3C[C@H]4OC(c5ccc(COC6CCOC6=O)cc5)O[C@@]4(C(=O)CO)[C@@]3(C)C[C@H](O)[C@@]12F` (stereo partly drawn) [Compound 16, (6aS,6bR,7S,8aS,8bS,11aR,12aS,12bS)-6b-Fluoro-7-hydroxy-8b-(2-hydroxyacetyl)-6a,8a-dimethyl-10-(4-(((2-oxotetrahydrofuran-3-yl)oxy)methyl)phenyl)-1,2,6a,6b,7,8,8a,8b,11a,12,12a,12b-do decahydro-4H-naphtho[2',1':4,5]indeno[1,2-d][1,3]dioxol-4-one], in data set [1], the “intraocular pressure after continuous ocular administration” value is reported as “no abnormal intraocular pressure observed”. Further, the “inflammatory response on the intestinal surface / intestinal symptoms” value in data set [2] is on record as “significantly alleviated the intestinal symptoms in inflammatory bowel disease model rats”. Moreover, the “inflammatory response on the ocular surface / ocular symptoms” value in data set [3] is given as “significantly alleviated the ocular symptoms in dry eye syndrome model New Zealand rabbits”. Also, the “tear film break-up time” value in data set [4] is recorded as “significantly increased the tear film break-up time”.

As for `C[C@]12C=CC(=O)C=C1CC[C@H]1[C@@H]3C[C@H]4OC(c5ccc(CSC6CCOC6=O)cc5)O[C@@]4(C(=O)CO)[C@@]3(C)C[C@H](O)[C@@]12F` (stereo partly drawn) [Compound 17, (6aS,6bR,7S,8aS,8bS,11aR,12aS,12bS)-6b-Fluoro-7-hydroxy-8b-(2-hydroxyacetyl)-6a,8a-dimethyl-10-(4-(((2-oxotetrahydrofuran-3-yl)thio)methyl)phenyl)-1,2,6a,6b,7,8,8a,8b,11a,12,12a,12b-do decahydro-4H-naphtho[2',1':4,5]indeno[1,2-d][1,3]dioxol-4-one], in data set [1], the “intraocular pressure after continuous ocular administration” value was “no abnormal intraocular pressure was observed”. In addition, the “Intraocular pressure of guinea pigs (mmHg) D0” value in data set [1] (D0, before administration, 50 µL/eye (compounds and fluorometholone 1 mg/mL, loteprednol 5 mg/mL)) worked out at 13.5 ± 0.6 mmHg. The “Intraocular pressure of guinea pigs (mmHg) D7” value in data set [1] (D7, 50 µL/eye (compounds and fluorometholone 1 mg/mL, loteprednol 5 mg/mL)) came out at 16.0 ± 1.4 mmHg. For the same compound, in data set [1] (D14, 50 µL/eye (compounds and fluorometholone 1 mg/mL, loteprednol 5 mg/mL)), the “Intraocular pressure of guinea pigs (mmHg) D14” value was 14.5 ± 1.9 mmHg. In addition, in data set [1] (D21, 50 µL/eye (compounds and fluorometholone 1 mg/mL, loteprednol 5 mg/mL)), the “Intraocular pressure of guinea pigs (mmHg) D21” value is reported as 13.3 ± 2.5 mmHg. In addition, the “Intraocular pressure of guinea pigs (mmHg) D28” value in data set [1] (D28, 50 µL/eye (compounds and fluorometholone 1 mg/mL, loteprednol 5 mg/mL)) was found to be 14.3 ± 1.5 mmHg. The “inflammatory response on the intestinal surface / intestinal symptoms” value in data set [2] is “significantly alleviated the intestinal symptoms in inflammatory bowel disease model rats”. Besides, the “inflammatory response on the ocular surface / ocular symptoms” value in data set [3] was “significantly alleviated the ocular symptoms in dry eye syndrome model New Zealand rabbits”. Besides, in data set [4], the “tear film break-up time” value is given as “significantly increased the tear film break-up time”.

In the case of `C[C@]12C=CC(=O)C=C1CC[C@H]1[C@@H]3C[C@H]4OC(c5ccc(CSC6COC(=O)C6)cc5Cl)O[C@@]4(C(=O)CO)[C@@]3(C)C[C@H](O)[C@@]12F` (stereo partly drawn) [Compound 20, (6aS,6bR,7S,8aS,8bS,11aR,12aS,12bS)-10-(2-Chloro-4-(((5-oxotetrahydrofuran-3-yl)thio)methyl)phenyl)-6b-fluoro-7-hydroxy-8b-(2-hydroxyacetyl)-6a,8a-dimethyl-1,2,6a,6b,7,8,8a,8b,11a,12,12a, 12b-dodecahydro-4H-naphtho[2',1':4,5]indeno[1,2-d][1,3]dioxol-4-one], the “intraocular pressure after continuous ocular administration” value in data set [1] is listed as “no abnormal intraocular pressure observed”. In data set [2], the “inflammatory response on the intestinal surface / intestinal symptoms” value is on record as “significantly alleviated the intestinal symptoms in inflammatory bowel disease model rats”. Besides, in data set [3] (setting [5]), the “Corneal fluorescein sodium staining score D3” value was 2.33 ± 0.82. Further, the “Corneal fluorescein sodium staining score D7” value in data set [3] (setting [6]) worked out at 1.5 ± 0.55. Also, the “Corneal fluorescein sodium staining score D15” value in data set [3] (setting [7]) stood at 1.1 ± 0.52. Besides, the “inflammatory response on the ocular surface / ocular symptoms” value in data set [3] is recorded as “significantly inhibited the inflammatory response on the ocular surface on day 15”. Also, the “Tear film break-up time (s) D3” value in data set [4] (setting [5]) amounted to 37.00 ± 13.36 s. The “Tear film break-up time (s) D7” value in data set [4] (setting [6]) is on record as 48.00 ± 9.94 s. Also, the “Tear film break-up time (s) D15” value in data set [4] (setting [7]) was determined as 48.28 ± 8.21 s. The “tear film break-up time” value in data set [4] was “significantly increased the tear film break-up time on day 15”.

In the case of `C[C@]12C=CC(=O)C=C1CC[C@H]1[C@@H]3C[C@H]4OC(c5ccc(CNC6COC(=O)C6)cc5)O[C@@]4(C(=O)CO)[C@@]3(C)C[C@H](O)[C@@]12F` (stereo partly drawn) [Compound 21, (6aS,6bR,7S,8aS,8bS,11aR,12aS,12bS)-6b-Fluoro-7-hydroxy-8b-(2-hydroxyacetyl)-6a,8a-dimethyl-10-(4-(((5-oxotetrahydrofuran-3-yl)amino)methyl)phenyl)-1,2,6a,6b,7,8,8a,8b,11a,12,12a,12b-dodecahydro-4H-naphtho[2',1':4,5]indeno[1,2-d][1,3]dioxol-4-one], in data set [1], the “intraocular pressure after continuous ocular administration” value is recorded as “no abnormal intraocular pressure observed”. Also, in data set [2], the “inflammatory response on the intestinal surface / intestinal symptoms” value is reported as “significantly alleviated the intestinal symptoms in inflammatory bowel disease model rats”. In addition, the “inflammatory response on the ocular surface / ocular symptoms” value in data set [3] is on record as “significantly alleviated the ocular symptoms in dry eye syndrome model New Zealand rabbits”. The “tear film break-up time” value in data set [4] is recorded as “significantly increased the tear film break-up time”.

As to `C[C@]12C=CC(=O)C=C1CC[C@H]1[C@@H]3C[C@H]4OC(c5ccc(COC6CCOC6=O)cc5)O[C@@]4(C(=O)CO)[C@@]3(C)C[C@H](O)[C@@]12Cl` (stereo partly drawn) [Compound 22, (6aS,6bR,7S,8aS,8bS,11aR,12aS,12bS)-6b-Chloro-7-hydroxy-8b-(2-hydroxyacetyl)-6a,8a-dimethyl-10-(4-(((2-oxotetrahydrofuran-3-yl)oxy)methyl)phenyl)-1,2,6a,6b,7,8,8a,8b,11a,12,12a,12b-do decahydro-4H-naphtho[2',1':4,5]indeno[1,2-d][1,3]dioxol-4-one], the “intraocular pressure after continuous ocular administration” value in data set [1] is “no abnormal intraocular pressure observed”. For the same compound, in data set [2], the “inflammatory response on the intestinal surface / intestinal symptoms” value is “significantly alleviated the intestinal symptoms in inflammatory bowel disease model rats”. Moreover, the “inflammatory response on the ocular surface / ocular symptoms” value in data set [3] is recorded as “significantly alleviated the ocular symptoms in dry eye syndrome model New Zealand rabbits”. Further, the “tear film break-up time” value in data set [4] is “significantly increased the tear film break-up time”.

These data come from patent EP4635969A1, “NOVEL GLUCOCORTICOID, METHOD FOR PREPARING SAME, AND USE THEREOF” (Tianjin Pharmaceutical Biotechnology Co., Ltd., priority 2022, dated 2024).
